Experimental data from PMC9739815, “Akt/mTOR Targeting Activity of Resveratrol Derivatives in Non-Small Lung Cancer” (Molecules, 2022).

Columns and labels:
A549 cells [1] = assay: MTT cell viability assay, A549 cells; type: cell-based; conditions: Homo sapiens, 24 h, 0–200 µM, read-out: IC50 ± SEM of NSCLC cells, A549
Description: (§1) NSCLC cells were cultured overnight and treated with various concentrations (0–200 µM) of resveratrol derivatives (RD1-RD5) and resveratrol for 24 h, and then cell viability was analyzed by the 3-(4, 5-dimethylthiazolyl-2)-2, 5-diphenyltetrazolium bromide (MTT) assay to evaluate the percentage of cell viability. All of the data were calculated on the basis of the results of three replicated samples. […] The difference of the structure at C-4 was that the hydroxyl group of RD2 was modified to the methoxy group of RD3 and at C-3, the methoxy group of RD2 was changed to the hydroxyl group of RD3. […] Furthermore, resveratrol decreased cell viability in NSCLC cells (A549, H23, and H460) with the IC50 at more than 200 µM which was the same RD3 (Figure 2a–d). This different action on cancer cells as a result of chemical structure modification has provided an insight for the structure–activity relationship that may facilitate the further development of the potent compound from the lead structure of resveratrol derivatives. Cell viability was investigated by MTT colorimetric assay. All cell lines were cultured at the density of 1 × 10^4 cells per well in a 96-well tissue culture plate and incubated in an incubator. After that, cells were treated with various concentrations of RD1-RD5 for 24 h at 37 °C and analyzed by the MTT assay according to the manufacturer’s protocol (Sigma Chemical, St. Louis, MO, USA). In calculating the cell viability by a microplate reader (Anthros, Durham, NC, USA), the measured absorbance of treated cells were divided by the value of untreated cells and are reported as a percentage.

H23 cells [2] = assay: MTT cell viability assay, H23 cells; type: cell-based; conditions: Homo sapiens, NCI-H23, 24 h, 0–200 µM, read-out: IC50 ± SEM of NSCLC cells, H23
Description: as §1

H460 cells = assay: MTT cell viability assay, H460 cells; type: cell-based; conditions: Homo sapiens, NCI-H460, 24 h, 0–200 µM, read-out: IC50 ± SEM of NSCLC cells, H460
Description: as §1

DP cells = assay: MTT cell viability assay, normal dermal papilla (DP) cells; type: cell-based; conditions: 24 h; for effect on cell viability percentages in DP cells: normal human dermal papilla cells; for IC50: Human dermal papilla cell, 0–200 µM, read-out: IC50 ± SEM of DP cells
Description: To confirm the selective cytotoxicity of resveratrol derivatives (RD2 and RD3) in cancer cells, resveratrol derivatives (RD2 and RD3) and resveratrol were determined for the cytotoxic profile in normal human cells, dermal papilla (DP).
Cell viability was investigated by MTT colorimetric assay. All cell lines were cultured at the density of 1 × 10^4 cells per well in a 96-well tissue culture plate and incubated in an incubator. After that, cells were treated with various concentrations of RD1-RD5 for 24 h at 37 °C and analyzed by the MTT assay according to the manufacturer’s protocol (Sigma Chemical, St. Louis, MO, USA). In calculating the cell viability by a microplate reader (Anthros, Durham, NC, USA), the measured absorbance of treated cells were divided by the value of untreated cells and are reported as a percentage.

A549 cells [3] = assay: Colony formation assay, A549 cells; type: cell-based, human; conditions: for reduction of number of forming colonies: 24 h treatment, 7 days; for reduction of number of forming colonies / decrease of colony size: vs control
Description: (§2) Colony formation assay was used to confirm the anti-cancer action of resveratrol derivatives, as it is a cell proliferation assay which can detect the ability of a single cell to grow into a colony. NSCLC cells were seeded and treated with RD2 and RD3 (1–200 μM) for 24 h. The treated cells were subjected to colony formation assay for 7 days. The crystal violet-staining colony represented the colony suppression effect of RD2 and RD3 compared to the untreated control (Figure 3a,b). The RD2 compound dramatically abolished the forming colony. Colony number was absent in response to RD2 at the concentrations of 100 and 200 μM, whereas there was no significant response to RD3 (Figure 3a,b).
(§3) Cells were seeded at a density of 300 cells/well into 6-well plate and then further treated with various concentrations resveratrol derivatives for 24 h after that the medium was replaced and the cell were incubated for colony number and colony size were investigated after fixing with methanol and acetic acid (3:1) solution and staining with 0.05% w/v crystal violet in 4% formaldehyde.

H23 cells [4] = assay: Colony formation assay, H23 cells; type: cell-based, human; conditions: for reduction of number of forming colonies: 24 h treatment, 7 days; for reduction of number of forming colonies / decrease of colony size: vs control
Description: as §2, §3

A549 cells [5] = assay: Hoechst 33342/PI nuclear staining apoptosis assay, A549 cells; type: cell-based, human; conditions: 24 h
Description: (§4) Apoptosis is considered as an important mechanism of action of anti-cancer drugs. The important characteristics of apoptotic cells include the nuclear morphological changes, chromatin condensation, and DNA fragmentation. Hoechst 33342 and propidium iodide (PI) double staining was utilized to determine the mode of cell death by monitoring the nucleus morphology of apoptotic cells as well as their membrane integrity. Cells were seeded in a 96-well plate at the density of 1 × 10^4 cells/well and treated with various concentrations of RD2 and RD3 (10–200 μM) for 24 h. The cells were co-stained with Hoechst 33342 and PI. […] The red fluorescence of PI indicated a late apoptosis cell and necrotic cells.
(§5) This method was applied to define apoptotic and necrotic cell death by using nuclear staining with Hoechst 33342. The cells were seeded on 96-well plates at the density 1 × 10^4 cells per well in 96-well plates and incubated overnight. The cells were treated with various concentrations of RD1-RD5 and incubated for 24 h at 37 °C. Afterward, the cells were incubated with Hoechst 33342 (10 μg/mL) / PI (5 μg/mL) solution for 30 min at 37 °C. Then, they were visualized and imaged under a fluorescence microscope (Olympus DP70, Melville, NY, USA). Results are reported as a percentage of apoptotic cells.

H23 cells [6] = assay: Hoechst 33342/PI nuclear staining apoptosis assay, H23 cells; type: cell-based, human; conditions: 24 h
Description: as §4, §5

p-Akt/Akt in A549 cells = assay: Western blot of p-Akt/Akt, A549 cells; type: cell-based, human; conditions: 12 h
Description: (§6) NSCLC cells (A549 and H23) were treated with RD2 and RD3 (10–100 μM) for 12 h. After which, all cells were collected and the expression levels of Akt, p-Akt, mTOR, and p-mTOR were investigated by Western blot analysis (Figure 5a, Figure 6a, Figure 7a and Figure 8a). […] Immunofluorescence staining of Akt, p-Akt, mTOR, and p-mTOR was performed in RD2 and RD3 treated cells. The results further confirm the effect of RD2 and RD3 on the Akt/mTOR pathway.
(§7) Western blotting was used to detect the presence of specific protein. Cells were seed at a density of 4 × 10^5 cells/well in 6 well plates overnight. Cells were treated with various concentrations RD1-RD5 were treated for 12 h. After treatment, the apoptosis cells were collected by centrifuging media with 1500 rpm for 5 min and aspirating supernatants. Then, cells were washed with cold 1× PBS and incubated with 1X RIPPA 40 µL containing 10× RIPA buffer 100 µL, protease inhibitors (PI) 100 µL, PMSF 10 µL, and Triton × 10 µL for 30 min on ice. BCA protein assay kit from Pierce Biotechnology (Rockford, IL, USA) analyzed protein concentrations. The extracted proteins were separated by 7.5–10% sodium dodecyl sulfate polyacrylamide gel electrophoresis (SDS-PAGE) and transferred to polyvinylidene difluoride membrane (PVDF). Then, the membranes were blocked with 5% non-fat milk powder for 2 h. After that, they were incubated with primary antibody at 4 °C Akt (#9272), phosphorylated Akt (#4060), mTOR (#2983S), and p-mTOR (#5536S) overnight. The membranes were washed with Tris-buffered saline/Tween 20 3 times and incubated with secondary antibodies for 2 h. Finally, the protein bands were detected using chemiluminescence substrate and exposed by Chemiluminescent ImageQuant LAS4000. Protein bands were analyzed using Image J software.

[7] = system: p-mTOR/mTOR in A549 cells; assay: Western blot of p-mTOR/mTOR, A549 cells; type: cell-based, human; conditions: 12 h
Description: as §6, §7

p-Akt/Akt in H23 cells = assay: Western blot of p-Akt/Akt, H23 cells; type: cell-based, human; conditions: 12 h
Description: as §6, §7

p-mTOR/mTOR in H23 cells = assay: Western blot of p-mTOR/mTOR, H23 cells; type: cell-based, human; conditions: 12 h
Description: as §6, §7

p-mTOR in A549 cells = assay: Immunofluorescence staining of p-mTOR, A549 cells; type: cell-based, human; conditions: 12 h, RD2 effect at 50–100 μM
Description: as §6
(§8) Cells were seeded at a density of 1 × 10^4 cells/well in 6-well plates overnight. Cells were treated with various concentrations resveratrol derivatives ([…]) and were treated for 12 h. Then, they were fixed with 4% paraformaldehyde in PBS for 15 min, permeabilized for 5 min with 0.5% Triton-X, and blocked with 0.1% Triton-X in 10% FBD in PBS for 1 h at room temperature. Cells were added to the primary antibody Akt (#9272), phosphorylated Akt (#4060), mTOR (#2983S), and p-mTOR (#5536S). Then, they were incubated at 4 °C overnight. After that, they were incubated with secondary antibody for 1 h and stained with Hoechst 33342 for 30 min at room temperature in a dark place. The images were visualized under a fluorescent microscope (Olympus DP70, Melville, NY, USA) and analyzed by The ImageJ software.

p-mTOR in H23 cells = assay: Immunofluorescence staining of p-mTOR, H23 cells; type: cell-based, human; conditions: 12 h, RD2 effect at 50–100 μM
Description: as §6, §8

p-Akt in A549 cells = assay: Immunofluorescence staining of p-Akt, A549 cells; type: cell-based, human; conditions: 10–100 µM, vs untreated control
Description: as §6, §8

p-Akt in H23 cells = assay: Immunofluorescence staining of p-Akt, H23 cells; type: cell-based, human; conditions: 10–100 µM, vs untreated control
Description: as §6, §8

SMILES: COc1cc(CCc2cc(C)c(OC)c(O)c2)cc(OC)c1O [RD1, 5-(4-hydroxy-3,5-dimethoxyphenethyl)-2-methoxy-3-methylphenol]
- IC50 (A549 cells [1]): 164 ± 26.2 µM
- IC50 (H23 cells [2]): 129 ± 8.91 µM
- IC50 (H460 cells): > 200 µM

SMILES: COc1cc(CCc2ccc(O)c(OC)c2)ccc1O [RD2, 4,4′-(ethane-1,2-diyl)bis(2-methoxyphenol)]
- IC50 (A549 cells [1]): 109 ± 10.8 µM
- IC50 (H23 cells [2]): 104 ± 6.08 µM
- IC50 (H460 cells): 138 ± 25.6 µM
- effect on cell viability percentages in DP cells (DP cells): did not significantly affect
- IC50 (DP cells): > 200 µM
- reduction of number of forming colonies (A549 cells [3]; 10 μM): 31.04%
- reduction of number of forming colonies (A549 cells [3]; 100 μM): 98.18%
- decrease of colony size (A549 cells [3]; 100 μM): 71.66%
- reduction of number of forming colonies (A549 cells [3]; 200 μM): 99.40%
- decrease of colony size (A549 cells [3]; 200 μM): 85.42%
- reduction of number of forming colonies (H23 cells [4]; 10 μM): 25.43%
- reduction of number of forming colonies (H23 cells [4]; 100 μM): 94.16%
- decrease of colony size (H23 cells [4]; 100 μM): 64.42%
- reduction of number of forming colonies (H23 cells [4]; 200 μM): 98.23%
- decrease of colony size (H23 cells [4]; 200 μM): 65.98%
- apoptotic ratio (A549 cells [5]; 10 μM): 23.25%
- apoptotic ratio (A549 cells [5]; 100 μM): 61.26%
- apoptotic ratio (A549 cells [5]; 200 μM): 86.30%
- apoptotic ratio (H23 cells [6]; 100 μM): 36.63%
- apoptotic ratio (H23 cells [6]; 200 μM): 75.79%
- p-Akt/Akt protein expression levels (p-Akt/Akt in A549 cells; A549 cells, 50 μM, vs untreated control): significant decrease
- p-Akt/Akt protein expression levels (p-Akt/Akt in A549 cells; A549 cells, 100 μM, vs untreated control): significant decrease
- p-mTOR/mTOR protein expression levels ([7]; 100 μM, vs untreated control): significant decrease
- p-Akt/Akt protein expression levels (p-Akt/Akt in H23 cells; 50 μM, vs untreated control): significant decrease
- p-Akt/Akt protein expression levels (p-Akt/Akt in H23 cells; 100 μM, vs untreated control): significant decrease
- p-mTOR/mTOR protein expression levels (p-mTOR/mTOR in H23 cells; 100 μM, vs untreated control): significant decrease
- p-mTOR signal intensity (p-mTOR in A549 cells): dramatic decrease
- p-mTOR signal intensity (p-mTOR in H23 cells): dramatic decrease

SMILES: COc1ccc(CCc2ccc(O)c(OC)c2)cc1O [RD3, 4-(3-hydroxy-4-methoxyphenethyl)-2-methoxyphenol]
- IC50 (A549 cells [1]): > 200 µM
- IC50 (H23 cells [2]): > 200 µM
- IC50 (H460 cells): > 200 µM
- effect on cell viability percentages in DP cells (DP cells): did not significantly affect
- IC50 (DP cells): > 200 µM
- reduction of number of forming colonies (A549 cells [3]; 10 μM): 20.44%
- reduction of number of forming colonies (A549 cells [3]; 100 μM): 21.94%
- reduction of number of forming colonies (A549 cells [3]; 200 μM): 38.91%
- effect on colony size (A549 cells [3]; 10–200 μM): no significant effect
- reduction of number of forming colonies (H23 cells [4]; 10 μM): 24.83%
- reduction of number of forming colonies (H23 cells [4]; 100 μM): 27.70%
- reduction of number of forming colonies (H23 cells [4]; 200 μM): 59.74%
- effect on colony size (H23 cells [4]; 10–200 μM): no significant effect
- apoptotic ratio (A549 cells [5]; 200 μM): 13.25%
- apoptotic ratio (H23 cells [6]; 200 μM): 18.57%
- p-Akt/Akt protein expression levels (p-Akt/Akt in A549 cells; A549 cell, 10–200 μM): increased
- p-mTOR/mTOR protein expression levels ([7]; 10–100 μM): no effect
- p-Akt/Akt protein expression levels (p-Akt/Akt in H23 cells; 10–100 μM): increased
- p-mTOR/mTOR protein expression levels (p-mTOR/mTOR in H23 cells; 10–100 μM): no effect
- p-mTOR signal intensity (p-mTOR in A549 cells): only minimally affected
- p-mTOR signal intensity (p-mTOR in H23 cells): only minimally affected
- p-Akt intensity (p-Akt in A549 cells): significantly increased
- p-Akt intensity (p-Akt in H23 cells): significantly increased
